Source: ChEMBL document CHEMBL4024712, “Synthesis, stability and mechanistic studies of potent anticryptococcal hexapeptides” (Eur J Med Chem, 2017)
≈ marks a conversion by molar mass, not a printed value. Non-standard residues stand in square brackets, D forms with d. Residues, ends and D or L forms follow the SMILES beside them. His(τ-Bzl) = N[C@@H](Cc1cn(Cc2ccccc2)cn1)C(=O)O; Phe(4-Me) = Cc1ccc(C[C@H](N)C(=O)O)cc1; Cha = N[C@@H](CC1CCCCC1)C(=O)O; Phg = N[C@H](C(=O)O)c1ccccc1; Nle = CCCC[C@H](N)C(=O)O; Orn = NCCC[C@H](N)C(=O)O; Dab = NCC[C@H](N)C(=O)O

Columns and labels:
[1] = test system: Vero; assay: Cytotoxicity against African green monkey Vero cells up to 10 ug/ml after 48 hrs by neutral red dye based assay; assay type: cell-based; details: chlorocebus sabaeus
[2] = test system: Mycobacterium intracellulare; assay: Anti-bacterial activity against Mycobacterium intracellulare ATCC 23068 after 68 to 72 hrs by Alamar blue assay; assay type: functional, cell-based
[3] = test system: Aspergillus fumigatus; assay: Antifungal activity against Aspergillus fumigatus ATCC 90906 after 68 to 72 hrs by Alamar blue assay; assay type: functional
[4] = test system: Nakaseomyces glabratus; assay: Antifungal activity against Candida glabrata ATCC 90030 after 18 to 24 hrs by Alamar blue assay; assay type: functional
[5] = test system: Pseudomonas aeruginosa; assay: Anti-bacterial activity against Pseudomonas aeruginosa ATCC 27853 by CLSI method; assay type: functional
[6] = test system: Escherichia coli; assay: Anti-bacterial activity against Escherichia coli ATCC 35218 by CLSI method; assay type: functional
[7] = test system: Candida albicans; assay: Antifungal activity against Candida albicans ATCC 90028 after 18 to 24 hrs by Alamar blue assay; assay type: functional
[8] = test system: Cryptococcus neoformans; assay: Antifungal activity against Cryptococcus neoformans ATCC 90113 after 68 to 72 hrs by Alamar blue assay; assay type: functional
[9] = test system: Pichia kudriavzevii; assay: Antifungal activity against Candida krusei ATCC 6258 after 18 to 24 hrs by Alamar blue assay; assay type: functional
[10] = test system: Cryptococcus neoformans; assay: Fungicidal activity against Cryptococcus neoformans ATCC 90113 after 68 to 72 hrs by Alamar blue assay; assay type: functional
[11] = test system: Staphylococcus aureus; assay: Anti-bacterial activity against Staphylococcus aureus ATCC 29213 by CLSI method; assay type: functional
[12] = test system: Staphylococcus aureus; assay: Anti-bacterial activity against methicillin-resistant Staphylococcus aureus ATCC 33591 by CLSI method; assay type: functional
[13] = test system: Pichia kudriavzevii; assay: Fungicidal activity against Candida krusei ATCC 6258 after 18 to 24 hrs by Alamar blue assay; assay type: functional
[14] = Pichia kudriavzevii, ATCC 6258, read-out: IC50
[15] = Staphylococcus aureus, ATCC 29213, read-out: IC50
[16] = Escherichia coli, ATCC 35218, read-out: IC50
[17] = Staphylococcus aureus, ATCC 33591, read-out: IC50

IC50 [5] | MIC [8] [µg/mL] | Structure (SMILES) | Activity [1] | IC50 [2] | IC50 [3] | IC50 [4] | IC50 [7] | IC50 [9] | MFC [10] [µg/mL] | also measured
Not Active | 2.5 (≈ 2.72 µM) | CC[C@H](C)[C@H](NC(=O)[C@H](CC1CCCCC1)NC(=O)[C@H](Cc1ccccc1)NC(=O)[C@@H](N)CCCN)C(=O)N[C@H](Cc1ccccc1)C(=O)N[C@@H](Cc1cn(Cc2ccccc2)cn1)C(N)=O (H-[Orn]F[Cha]I[dF][His(τ-Bzl)]-NH2) | Non-Toxic | Not Active | Not Active | Not Active | Not Active | Not Active |  | 
Not Active |  | CC[C@H](C)[C@H](NC(=O)[C@H](CC1CCCCC1)NC(=O)[C@H](CC(C)C)NC(=O)[C@@H](N)CCCN)C(=O)N[C@H](Cc1ccccc1)C(=O)N[C@@H](Cc1cn(Cc2ccccc2)cn1)C(N)=O (H-[Orn]L[Cha]I[dF][His(τ-Bzl)]-NH2) | Non-Toxic | Not Active | Not Active | Not Active | Not Active | Not Active | 2.5 (≈ 2.82 µM) | 
Not Active |  | CC[C@H](C)[C@H](NC(=O)[C@H](CC1CCCCC1)NC(=O)[C@@H]1CCCN1C(=O)[C@@H](N)CCCN)C(=O)N[C@H](Cc1ccccc1)C(=O)N[C@@H](Cc1cn(Cc2ccccc2)cn1)C(N)=O (H-[Orn]P[Cha]I[dF][His(τ-Bzl)]-NH2) | Non-Toxic | Not Active | Not Active | Not Active | Not Active | Not Active | 2.5 (≈ 2.88 µM) | 
Not Active |  | CCCC[C@H](NC(=O)[C@@H](N)CCCN)C(=O)N[C@@H](CC1CCCCC1)C(=O)N[C@H](C(=O)N[C@H](Cc1ccccc1)C(=O)N[C@@H](Cc1cn(Cc2ccccc2)cn1)C(N)=O)[C@@H](C)CC (H-[Orn][Nle][Cha]I[dF][His(τ-Bzl)]-NH2) | Non-Toxic | Not Active | Not Active | Not Active | Not Active | Not Active | 2.5 (≈ 2.82 µM) | 
Not Active |  | CC[C@H](C)[C@H](NC(=O)[C@H](CC1CCCCC1)NC(=O)[C@@H](NC(=O)[C@@H](N)CCCN)c1ccccc1)C(=O)N[C@H](Cc1ccccc1)C(=O)N[C@@H](Cc1cn(Cc2ccccc2)cn1)C(N)=O (H-[Orn][Phg][Cha]I[dF][His(τ-Bzl)]-NH2) | Non-Toxic | Not Active | Not Active | Not Active | Not Active | Not Active |  | 
Not Active |  | CC[C@H](C)[C@H](NC(=O)[C@H](CC1CCCCC1)NC(=O)[C@@H](Cc1ccccc1)NC(=O)[C@@H](N)CCCN)C(=O)N[C@H](Cc1ccccc1)C(=O)N[C@@H](Cc1cn(Cc2ccccc2)cn1)C(N)=O (H-[Orn][dF][Cha]I[dF][His(τ-Bzl)]-NH2) | Non-Toxic |  | Not Active | Not Active | Not Active | Not Active | 1.25 (≈ 1.36 µM) | 
Not Active | 1.25 (≈ 1.41 µM) | CC[C@H](C)[C@H](NC(=O)[C@H](CC1CCCCC1)NC(=O)[C@@H](CC(C)C)NC(=O)[C@@H](N)CCCN)C(=O)N[C@H](Cc1ccccc1)C(=O)N[C@@H](Cc1cn(Cc2ccccc2)cn1)C(N)=O (H-[Orn][dL][Cha]I[dF][His(τ-Bzl)]-NH2) | Non-Toxic |  | Not Active | Not Active | Not Active | Not Active |  | MIC ([2]; Mycobacterium intracellulare, ATCC 23068): 20 µg/mL (≈ 22.6 µM)
Not Active | 2.5 (≈ 2.88 µM) | CC[C@H](C)[C@H](NC(=O)[C@H](CC1CCCCC1)NC(=O)[C@H]1CCCN1C(=O)[C@@H](N)CCCN)C(=O)N[C@H](Cc1ccccc1)C(=O)N[C@@H](Cc1cn(Cc2ccccc2)cn1)C(N)=O (H-[Orn][dP][Cha]I[dF][His(τ-Bzl)]-NH2) | Non-Toxic | Not Active | Not Active | Not Active | Not Active | Not Active | 2.5 (≈ 2.88 µM) | 
Not Active | 1.25 (≈ 1.32 µM) | CC(C)[C@H](NC(=O)[C@H](CC1CCCCC1)NC(=O)[C@@H](Cc1c[nH]c2ccccc12)NC(=O)[C@@H](N)CCCN)C(=O)N[C@H](Cc1ccccc1)C(=O)N[C@@H](Cc1cn(Cc2ccccc2)cn1)C(N)=O (H-[Orn][dW][Cha]V[dF][His(τ-Bzl)]-NH2) | Non-Toxic |  | Not Active | Not Active | Not Active | Not Active | 1.25 (≈ 1.32 µM) | IC50 [6]: Not Active
Not Active |  | CC[C@@H](C)[C@@H](NC(=O)[C@H](CC1CCCCC1)NC(=O)[C@@H](Cc1c[nH]c2ccccc12)NC(=O)[C@@H](N)CCCN)C(=O)N[C@H](Cc1ccccc1)C(=O)N[C@@H](Cc1cn(Cc2ccccc2)cn1)C(N)=O (H-[Orn][dW][Cha][dI][dF][His(τ-Bzl)]-NH2) | Non-Toxic |  | Not Active | Not Active |  |  |  | 
Not Active | 2.5 (≈ 2.61 µM) | CC(C)C[C@@H](NC(=O)[C@H](CC1CCCCC1)NC(=O)[C@@H](Cc1c[nH]c2ccccc12)NC(=O)[C@@H](N)CCCN)C(=O)N[C@H](Cc1ccccc1)C(=O)N[C@@H](Cc1cn(Cc2ccccc2)cn1)C(N)=O (H-[Orn][dW][Cha][dL][dF][His(τ-Bzl)]-NH2) | Non-Toxic |  | Not Active | Not Active | Not Active |  |  | MIC ([11]; Staphylococcus aureus, ATCC 29213): 20 µg/mL (≈ 20.9 µM); IC50 [9, 14]: 20 µg/mL (≈ 20.9 µM); IC50 [6]: Not Active
 |  | O=C(O)c1cn(C2CC2)c2cc(N3CCNCC3)c(F)cc2c1=O [CIPROFLOXACIN] |  |  |  |  |  |  |  | IC50 ([2]; Mycobacterium intracellulare, ATCC 23068, read-out: IC50): 0.47 µg/mL (≈ 1.42 µM)

Structure (SMILES) | IC50 [5] | MIC [8] [µg/mL] | Activity [1] | IC50 [2] | IC50 [3] | IC50 [4] | IC50 [7] | IC50 [9] | MFC [10] [µg/mL] | also measured
Cc1ccc(C[C@H](NC(=O)[C@@H](Cc2ccccc2)NC(=O)[C@@H](Cc2c[nH]c3ccccc23)NC(=O)[C@@H](N)CCN)C(=O)N[C@H](Cc2ccccc2)C(=O)N[C@@H](Cc2cn(Cc3ccccc3)cn2)C(N)=O)cc1 (H-[Dab][dW][dF][Phe(4-Me)][dF][His(τ-Bzl)]-NH2) | Not Active |  | Non-Toxic | Not Active | Not Active | Not Active | Not Active |  |  | IC50 [6]: Not Active
Cc1ccc(C[C@H](NC(=O)[C@@H](Cc2ccccc2)NC(=O)[C@@H](Cc2c[nH]c3ccccc23)NC(=O)[C@@H](N)CCCN)C(=O)N[C@H](Cc2ccccc2)C(=O)N[C@@H](Cc2c[nH]cn2)C(N)=O)cc1 (H-[Orn][dW][dF][Phe(4-Me)][dF]H-NH2) | Not Active | 1.25 (≈ 1.37 µM) | Non-Toxic | Not Active | Not Active | Not Active | Not Active | Not Active | 1.25 (≈ 1.37 µM) | IC50 [11]: Not Active; IC50 [8]: 0.8 µg/mL (≈ 0.879 µM); IC50 [6]: Not Active; IC50 [12]: Not Active
Cc1ccc(C[C@H](NC(=O)[C@@H](Cc2ccccc2)NC(=O)[C@@H](Cc2c[nH]c3ccccc23)NC(=O)[C@@H](N)CCCN)C(=O)N[C@H](Cc2ccccc2)C(=O)N[C@@H](CCN)C(N)=O)cc1 (H-[Orn][dW][dF][Phe(4-Me)][dF][Dab]-NH2) [listing 1 of 2 here] | Not Active |  | Non-Toxic | Not Active | Not Active | Not Active | Not Active |  |  | IC50 [11, 15]: 16.1 µg/mL (≈ 18.4 µM); IC50 [8]: 0.8 µg/mL (≈ 0.916 µM); IC50 [9, 14]: 14.8 µg/mL (≈ 16.9 µM); IC50 [6, 16]: 6 µg/mL (≈ 6.87 µM); IC50 [12, 17]: > 20 µg/mL
Cc1ccc(C[C@H](NC(=O)[C@@H](Cc2ccccc2)NC(=O)[C@@H](Cc2c[nH]c3ccccc23)NC(=O)[C@@H](N)CCCN)C(=O)N[C@H](Cc2ccccc2)C(=O)N[C@@H](CCN)C(N)=O)cc1 (H-[Orn][dW][dF][Phe(4-Me)][dF][Dab]-NH2) [listing 2 of 2 here] |  | 1.25 (≈ 1.43 µM) |  |  |  |  |  |  | 1.25 (≈ 1.43 µM) | MFC [13]: 20 µg/mL (≈ 22.9 µM); MIC ([9]; Pichia kudriavzevii, ATCC 6258): 20 µg/mL (≈ 22.9 µM)
Cc1ccc(C[C@H](NC(=O)[C@@H](Cc2ccccc2)NC(=O)[C@@H](Cc2c[nH]c3ccccc23)NC(=O)[C@@H](N)CCCN)C(=O)N[C@H](Cc2ccccc2)C(=O)N[C@H](Cc2c[nH]cn2)C(N)=O)cc1 (H-[Orn][dW][dF][Phe(4-Me)][dF][dH]-NH2) | Not Active | 1.25 (≈ 1.37 µM) | Non-Toxic | Not Active | Not Active | Not Active | Not Active |  | 1.25 (≈ 1.37 µM) | IC50 [11, 15]: 18 µg/mL (≈ 19.8 µM); MFC [13]: 10 µg/mL (≈ 11 µM); IC50 [8]: 0.8 µg/mL (≈ 0.879 µM); MIC ([9]; Pichia kudriavzevii, ATCC 6258): 10 µg/mL (≈ 11 µM); IC50 [9, 14]: 5.16 µg/mL (≈ 5.67 µM); IC50 [6, 16]: 12.7 µg/mL (≈ 14 µM); IC50 [12, 17]: > 20 µg/mL
